Assay results reported in patent US7745422B2, “Bisphosphonate compounds and methods for bone resorption diseases, cancer, bone pain, immune disorders, and infectious diseases” (The Board of Trustees of the University of Illinois, priority 2004, dated 2010).
Where two headings read alike, the source gives them in different places.

How the values were obtained:
Vγ2Vδ2 T cells = experiment: gammadelta T cell stimulation (TNF-α release assay); assay type: cell-based, human
From the text: (§1) We then investigated the activity of each compound in inhibiting the FPPS from L. major, in Dictyostelium discoideum growth inhibition and in γδ T cell activation. We used the FPPS from L. major since this enzyme is the putative bisphosphonate target in several trypanosomatid species.

Dictyostelium discoideum = experiment: D. discoideum cell growth inhibition; assay type: cell-based; conditions: for IC50: read-out: (1) D. discoideum IC50
From the text: as §1

[1] = Table 4, read-out: (3) gammadelta T cell stimulation EC50
[2] = Homo sapiens, T-cell, read-out: (3) gammadelta T cell stimulation EC50

`O=P([O-])(O)C(C[n+]1ccc(Cc2ccccc2)cc1)P(=O)(O)O` (stereo not shown) [Compound 481] was tested. Which EC50 (Vγ2Vδ2 T cells; Table 3, additional testing, read-out: gammadelta T cell stimulation EC50) did it give?
Its EC50 is 83.4 µM.

And the IC50 (Dictyostelium discoideum; Table 4)?
The IC50 was 3.5 µM.

Which EC50 (Vγ2Vδ2 T cells; Homo sapiens, T-cell, read-out: gammadelta T cell stimulation EC50) does the source give for `O=P([O-])(O)C(C[n+]1cccc(Br)c1)P(=O)(O)O` (stereo not shown) [Compound 483] here?
Its EC50 is 2.9 µM.

And the IC50 (Dictyostelium discoideum; Dictyostelium discoideum)?
Its IC50 is 2.5 µM.

`O=P([O-])(O)C(C[n+]1ccc(C(F)(F)F)cc1)P(=O)(O)O` (stereo not shown) [Compound 485] was tested. Which EC50 (Vγ2Vδ2 T cells; [1]) did it give?
Its EC50 is 370 µM.

And the IC50 (Dictyostelium discoideum; Table 4)?
Its IC50 is 58 µM.

Which “(3) gammadelta T cell stimulation EC50” value (Vγ2Vδ2 T cells; Table 4) does the source give for `O=P([O-])(O)C(C[n+]1cccc(S(=O)(=O)N2CCCC2)c1)P(=O)(O)O` (stereo not shown) [Compound 502] here?
Its value is “inactive”.

And the IC50 (Dictyostelium discoideum; Table 4)?
Its IC50 is 100 µM.

Which results are given for `O=P([O-])(O)C(O)(C[n+]1ccc(C(F)(F)F)cc1)P(=O)(O)O` (stereo not shown) [Compound 513]?
EC50 (Vγ2Vδ2 T cells; [1]): 550 µM; IC50 (Dictyostelium discoideum; Table 4): 1500 µM

With `O=P([O-])(O)C(O)(C[n+]1cccc(C(F)(F)F)c1)P(=O)(O)O` (stereo not shown) [Compound 520] as the compound, how does the EC50 (Vγ2Vδ2 T cells; [2]) read?
The EC50 was 14 µM.

And the IC50 (Dictyostelium discoideum; Dictyostelium discoideum)?
The IC50 was 6.3 µM.

What does the source list for `O=P([O-])(O)C(C[n+]1ccccc1F)P(=O)(O)O` (stereo not shown) [Compound 521]?
EC50 (Vγ2Vδ2 T cells; [1]): 790 µM; IC50 (Dictyostelium discoideum; Table 4): 570 µM

With `O=P([O-])(O)C(C[n+]1cc(F)cc(F)c1)P(=O)(O)O` (stereo not shown) [Compound 523] as the compound, how does the EC50 (Vγ2Vδ2 T cells; [1]) read?
Its EC50 is 11 µM.

And the IC50 (Dictyostelium discoideum; Table 4)?
The IC50 was 4.6 µM.

`O=P([O-])(O)C(O)(C[n+]1cccc(Cl)c1)P(=O)(O)O` (stereo not shown) [Compound 524] was tested. Which EC50 (Vγ2Vδ2 T cells; [2]) did it give?
Its EC50 is 10 µM.

And the IC50 (Dictyostelium discoideum; Dictyostelium discoideum)?
Its IC50 is 2.4 µM.

Which results are given for `O=Cc1ccc[n+](CC(P(=O)([O-])O)P(=O)(O)O)c1` (stereo not shown) [Compound 525]?
EC50 (Vγ2Vδ2 T cells; [1]): 11 µM; IC50 (Dictyostelium discoideum; Table 4): 8.4 µM

`O=C(c1ccccc1)c1ccc[n+](CC(P(=O)([O-])O)P(=O)(O)O)c1` (stereo not shown) [Compound 530] was tested. Which EC50 (Vγ2Vδ2 T cells; [1]) did it give?
Its EC50 is 6500 µM.

And the IC50 (Dictyostelium discoideum; Table 4)?
The IC50 was 190 µM.

`O=P([O-])(O)C(C[n+]1ccc(-n2nnc3ccccc32)cc1)P(=O)(O)O` (stereo not shown) [Compound 531] was tested. Which “(3) gammadelta T cell stimulation EC50” value (Vγ2Vδ2 T cells; Table 4) did it give?
The value was “inactive”.

And the IC50 (Dictyostelium discoideum; Table 4)?
Its IC50 is 20 µM.

Which EC50 (Vγ2Vδ2 T cells; [1]) does the source give for `O=Cc1cccc(-c2ccc[n+](CC(P(=O)([O-])O)P(=O)(O)O)c2)c1` (stereo not shown) [Compound 532] here?
The EC50 was 41 µM.

What about the IC50 (Dictyostelium discoideum; Table 4) of the same compound?
The IC50 was 4.1 µM.

What does the source list for `CP(=O)([O-])C(C[n+]1cccc(-c2ccccc2)c1)P(C)(=O)O` (stereo not shown) [Compound 556]?
EC50 (Vγ2Vδ2 T cells; [1]): 2300 µM; (1) D. discoideum IC50 (Dictyostelium discoideum; Table 4): inactive

Which EC50 (Vγ2Vδ2 T cells; [1]) does the source give for `CCCOc1cccc(-c2ccc[n+](CC(P(=O)([O-])O)P(=O)(O)O)c2)c1` (stereo not shown) [Compound 577] here?
Its EC50 is 21 µM.

What about the IC50 (Dictyostelium discoideum; Table 4) of the same compound?
The IC50 was 4.1 µM.

With `COc1cccc(-c2ccc[n+](CC(P(=O)([O-])O)P(=O)(O)O)c2)c1` (stereo not shown) [Compound 578] as the compound, how does the EC50 (Vγ2Vδ2 T cells; [1]) read?
Its EC50 is 20 µM.

And the IC50 (Dictyostelium discoideum; Table 4)?
The IC50 was 4 µM.

With `CCCCOc1cccc(-c2ccc[n+](CC(P(=O)([O-])O)P(=O)(O)O)c2)c1` (stereo not shown) [Compound 579] as the compound, how does the EC50 (Vγ2Vδ2 T cells; [1]) read?
The EC50 was 20 µM.

What about the IC50 (Dictyostelium discoideum; Table 4) of the same compound?
The IC50 was 6 µM.

How did the EC50 (Vγ2Vδ2 T cells; [1]) turn out when `CCCCOc1ccc(-c2ccc[n+](CC(P(=O)([O-])O)P(=O)(O)O)c2)cc1` (stereo not shown) [Compound 586] was run?
The EC50 was 90 µM.

What about the IC50 (Dictyostelium discoideum; Table 4) of the same compound?
The IC50 was 6 µM.

`CCCCCCc1ccc[n+](CC(P(=O)([O-])O)P(=O)(O)O)c1` (stereo not shown) [Compound 598] was tested. Which EC50 (Vγ2Vδ2 T cells; [1]) did it give?
The EC50 was 35 µM.

What about the IC50 (Dictyostelium discoideum; Table 4) of the same compound?
The IC50 was 1.7 µM.

What does the source list for `CC(C)=CCc1ccc[n+](CC(P(=O)([O-])O)P(=O)(O)O)c1` (stereo not shown) [Compound 599]?
EC50 (Vγ2Vδ2 T cells; [1]): 69 µM; IC50 (Dictyostelium discoideum; Table 4): 1.7 µM

What does the source list for `CCCCOc1ccc(-c2ccc[n+](CC(O)(P(=O)([O-])O)P(=O)(O)O)c2)cc1` (stereo not shown) [Compound 600]?
EC50 (Vγ2Vδ2 T cells; [1]): 290 µM; IC50 (Dictyostelium discoideum; Table 4): 11 µM

`CC(C)=CCCC(C)=CCc1ccc[n+](CC(P(=O)([O-])O)P(=O)(O)O)c1` (stereo not shown) [Compound 601] was tested. Which EC50 (Vγ2Vδ2 T cells; [1]) did it give?
Its EC50 is 220 µM.

And the IC50 (Dictyostelium discoideum; Table 4)?
The IC50 was 2.4 µM.

With `CC(C)C#Cc1ccc[n+](CC(P(=O)([O-])O)P(=O)(O)O)c1` (stereo not shown) [Compound 602] as the compound, how does the EC50 (Vγ2Vδ2 T cells; [1]) read?
The EC50 was 18 µM.

What about the IC50 (Dictyostelium discoideum; Table 4) of the same compound?
The IC50 was 2.04 µM.
